Laboratory results taken from patent US7625875B2 (priority 2002, dated 2009).
pEC50: −log10 of the molar value. Values joined by “and” are separate entries in the source; they are usually repeats but may differ in a detail not shown here. Identical values can stand only once. Like-named read-outs stand apart in the source and are kept apart here.

Columns and labels:
[1] = system: CVB-3; type: cell-based, Coxsackievirus B-3
[2] = system: DENV 2; test: microbe, parasite or virus in culture; type: cell-based, dengue virus; details: read-out: DENV 2
[3] = system: MT-4 human T-lymphocyte cells
[4] = system: Vero 76, African green monkey kidney cells
[5] = system: YFV; type: cell-based, yellow fever virus; details: Tables 30b, 30k-30o
[6] = system: CVB-4; type: cell-based, Coxsackievirus B-4
[7] = system: WNV; test: microbe, parasite or virus in culture; type: cell-based, West Nile virus; details: read-out: WNV
[8] = system: REO-1; test: microbe, parasite or virus in culture; type: cell-based, double-stranded RNA Reovirus
[9] = system: BHK
[10] = system: Sb-1; test: organism not typed; type: cell-based, Sabin type 1 poliomyelitis virus
[11] = system: CVB-2; test: organism not typed; type: cell-based, Coxsackie B-2 virus
[12] = system: BVDV; type: cell-based, bovine viral diarrhea virus
[13] = system: CVA-9; type: cell-based, Coxsackievirus A-9
[14] = system: HepG2 cells; test: Incorporation of drug into cellular RNA and DNA; details: 10 μM [3H] drug, 30 hours

| Compound | pEC50 [1] | pEC50 [2] | CC50 [3] [µM] | CC50 [4] [µM] | pEC50 [5] | pEC50 [6] | pEC50 [7] | pEC50 ([8]; read-out: EC50 REO-1) | pEC50 ([8]; read-out: REO) | CC50 [9] [µM] | pEC50 ([10]; read-out: EC50 Sb-1) | pEC50 ([10]; read-out: Sb-1) | pEC50 ([11]; read-out: CVB-2) | pEC50 ([11]; read-out: EC50 CVB-2) | pEC50 [12] | pEC50 [13] | Incorporated drug amount, DNA [14] | Incorporated drug amount, RNA [14] |
| --- | --- | --- | --- | --- | --- | --- | --- | --- | --- | --- | --- | --- | --- | --- | --- | --- | --- | --- |
| C[C@@]1(O)[C@H](O)[C@@H](CO)O[C@H]1n1cnc2c(N)nc(N)nc21 [Compound B, β-D-2′-C-methyl-2-amino adenosine] | 4.64 | 6.15 | > 100 | > 100 | 6.10 | 4.49 | 6.52 | 5.70 | 5.70 | 50 | 4.05 | 4.05 | 4.12 | 4.12 | 5.68 | 4.41 | – | – |
| CC(C(=O)c1ccccc1)n1c(N)nc2c(ncn2[C@@H]2O[C@H](CO)[C@@H](O)[C@@]2(C)O)c1=O (stereo partly drawn) [Compound L, β-D-2′-C-methyl-1-(methyl-2-oxo-2-phenylethyl)guanosine] | – | 5.36 | > 100 | – | 5.22 | – | 5.52 | – | 4.92 | – | – | < 4.00 | < 4.00 | – | 4.92 | – | – | – |
| C[C@@]1(O)[C@H](O)[C@@H](CO)O[C@H]1n1cnc2c(N)ncnc21 [Compound A, β-D-2′-C-methyl-adenosine] | 4.85 | 5.57 | 4 | 80 | 5.57 | 4.89 | 5.44 | < 4.15 | < 4.15 | 70 | – | – | 5.15 | 5.00 | 5.92 | 4.92 | – | – |
| C[C@@]1(O)[C@H](O)[C@@H](CO)O[C@H]1n1cnc2c(NC3CC3)nc(N)nc21 [Compound K, β-D-2′-C-methyl-2-amino-6-cyclopropyl adenosine] | – | 5.31 | > 100 | – | 5.00 | – | 5.46 | – | 5.02 | – | – | < 4.00 | < 4.00 | – | 4.74 | – | – | – |
| C[C@@]1(O)[C@H](O)[C@@H](CO)O[C@H]1n1cnc2c(Cl)nc(N)nc21 [Compound D, β-D-2′-C-methyl-6-chloro-guanosine] | 4.68 | 6.15 | > 100 | > 100 | 6.00 | 4.60 | 6.52 | 6.40 | 6.40 | 30 | 4.30 | 4.30 | 4.60 | 4.60 | 6.15 | 4.43 | – | – |
| C#C[C@@]1(O)[C@H](O)[C@@H](CO)O[C@H]1n1cnc2c(N)ncnc21 [Compound H, β-D-2′-C-ethynyl-adenosine] | 6.00 | 5.96 | 4.6 | 60 | 5.70 | 5.70 | 6.00 | 5.22 | 5.22 | 15 | – | 6.15 | 5.92 | 5.82 | 6.40 | 5.60 | – | – |
| C#C[C@@]1(O)[C@H](O)[C@@H](CO)O[C@H]1n1ccc(N)nc1=O [Compound I, β-D-2′-C-ethynyl-cytidine] | 4.48 | – | ≥ 100 | > 100 | – | 4.62 | – | < 4.00 | – | > 100 | 4.59 | – | – | 4.48 | – | 4.23 | – | – |
| Nc1nc(N)c2ncn([C@@H]3O[C@H](CO)[C@@H](O)[C@H]3O)c2n1 [Compound J, β-D-2-amino-adenosine] | 4.26 | – | 50 | > 100 | – | 4.30 | – | < 4.00 | – | > 100 | 4.40 | – | – | 4.28 | – | 4.28 | – | – |
| Cc1cn([C@H]2C[C@H](N=[N+]=[N-])[C@@H](CO)O2)c(=O)[nH]c1=O [ZDV, zidovudine] | – | – | – | – | – | – | – | – | – | – | – | – | – | – | – | – | 0.103 pmole/μg DNA and 0.103 ± 0.0123^a pmole/μg DNA | 0.0009 pmole/μg RNA and 0.0009 ± 0.0003^a pmole/μg RNA |
